Patent US11011273B2, “Pathway analysis for identification of diagnostic tests” (Nantomics, LLC, priority 2013, dated 2021)

Columns and labels:
Type in all cases: cell-based
NCIH23 = assay: Treatment effectiveness (GI50) on cell line NCIH23; conditions: Homo sapiens, NCI-H23; data point 240, FIG. 2; read-out: sensitivity class from GI50 treatment effectiveness value
Source text: (§1) There are many ways to derive and measure treatment effectiveness data 136 for a particular treatment. For example, effectiveness data can be derived by administering the evaluated treatment to each and every diseased cell line, and measure the effect of the evaluated treatment on each diseased cell line. The measurement can be based on an amount of drug needed to obtain a threshold inhibition effect of the disease in the cell line (e.g., the amount of drug needed to reduce the activities of the disease by half).
(§2) FIG. 2 illustrates a graph 200 showing a graphical representation of an example set of treatment effectiveness data 136 that represents how effective NANT3456 is on a set of cell lines. NANT3456 is described in more detail in WO/2014/071378, published May 8, 2014, which is incorporated by reference herein. In some embodiments, the data points on FIG. 2 represent distinct cell lines from different tissues, distinct cell lines from the same tissue, or any combination thereof. Further, the cell lines may be derived from a single host, multiple distinct hosts, or any combination. In this example, NANT3456 is known to be capable of treating diseases associated with the set of cell lines (e.g., cell lines MV411, TT, AN3CA, K562, PC3, HCT116, ASPC1, MDAMB231, TF1, NCIH23, MIAPACA2, HS766T, CAPAN2, A549, HT29, U937, BXPC3, CAPAN1, and SU8686). […]

cell line PC3 = assay: Treatment effectiveness (GI50) on cell line PC3; conditions: data point 235, FIG. 2; read-out: sensitivity class from GI50 treatment effectiveness value
Source text: as §1, §2

cell line MV411 = assay: Treatment effectiveness (GI50) on cell line MV411; conditions: Homo sapiens, MV4-11; data point 225, FIG. 2; read-out: sensitivity class from GI50 treatment effectiveness value
Source text: as §1, §2

cell line HT29 = assay: Treatment effectiveness (GI50) on cell line HT29; conditions: Homo sapiens, HT-29; data point 245, FIG. 2; read-out: sensitivity class from GI50 treatment effectiveness value
Source text: as §1, §2

[1] = system: set of cell lines (MV411, TT, AN3CA, K562, PC3, HCT116, ASPC1, MDAMB231, TF1, NCIH23, MIAPACA2, HS766T, CAPAN2, A549, HT29, U937, BXPC3, CAPAN1, SU8686); assay: Treatment effectiveness (GI50) of NANT3456 on a set of cell lines; conditions: median over all cell lines of FIG. 2; dotted line 220
Source text: as §1, §2

cell line CAPAN1 = assay: Treatment effectiveness (GI50) on cell line CAPAN1; conditions: Homo sapiens, CAPAN-1; data point 250, FIG. 2; read-out: sensitivity class from GI50 treatment effectiveness value
Source text: as §1, §2

cell line TT = assay: Treatment effectiveness (GI50) on cell line TT; conditions: data point 230, FIG. 2; read-out: sensitivity class from GI50 treatment effectiveness value
Source text: as §1, §2

- GI50 (cell line PC3): < 50.1 nM
- GI50 (cell line MV411): < 50.1 nM
- GI50 sensitivity class (cell line HT29): > 50.1 nM
- threshold effectiveness value (median value of all treatment effectiveness values, GI50) [1]: 1.7 log10 units of nanomolar drug
Compound: C/C=C/c1cc(Nc2cc(N3CCN(C)CC3)nc(Oc3cc(F)c4[nH]c(C)cc4c3F)n2)n[nH]1 [NANT3456]
- GI50 (NCIH23): > 50.1 nM
- GI50 (cell line CAPAN1): > 50.1 nM
- GI50 (cell line TT): < 50.1 nM
